Reference: patent publication US8110703B2, “Retinoid derivative and pharmaceutical composition and use thereof” (Anhui Medical University, priority 2008, dated 2012)

What was measured:
A549 cells = assay: Cell cycle and apoptosis by flow cytometry, A549; type: cell-based; conditions: A549, 10 μg/ml, 3 days
Experimental: 1.4 Detection of Cell Cycle and Apoptosis by Flow Cytometry A549 cells in the logarithmic phase are collected, regulated with the concentrations thereof to 8×10^7/L, inoculated in a 6-hole board, cultured in an incubator (37° C. and 5% CO2). After the cells are adhered, the culture solution is discarded, and a culture solution having drugs with the corresponding concentrations is added and divided into 10 μg/ml drug groups, 10 μg/ml fenretinide groups, cell control groups, solvent control groups (1‰ DMSO and anhydrous ethanol) (11 in total). After 3 days, each group of cells is normally digested, collected, blown into single cell suspension, washed by cold PBS twice, and re-suspend by 10 μl PBS. Fixing and member breaking agents and a PI staining solution are added according to the Coulter DNA detection kit and reacted with one another at the room temperature and out of light for 30 min for machine detection. Each sample detects 10000 cells and repeats for three times, and the data are analyzed by Analysis software for the ratio during the G0-G1, S and G2-M periods and the ratio of apoptotic cells.

apoptosis = conditions: cited from earlier work
[1] = patient, dosage 200 mg/day; cited from earlier work

Compound | Apoptosis Rate (%) (A549 cells; in DMSO) | G0-G1 (%) (A549 cells; in DMSO) | G2-M (%) (A549 cells; in DMSO) | S % (A549 cells; in DMSO) [%] | Apoptosis Rate (%) (A549 cells; in ethanol) | G0-G1 (%) (A549 cells; in ethanol) | G2-M (%) (A549 cells; in ethanol) | S % (A549 cells; in ethanol) [%] | effective concentration required to generate apoptosis in vivo (apoptosis) [µM] | plasma concentration [1] | Apoptosis Rate (%) (A549 cells; PI flow cytometry) | G0-G1 (%) (A549 cells; PI flow cytometry) | G2-M (%) (A549 cells; PI flow cytometry) | S % (A549 cells; PI flow cytometry) [%] | effect on the apoptosis of A549 cells (ranking in words) (A549 cells)
CC1=C(/C=C/C(C)=C/C=C/C(C)=C/C(=O)Nc2ccc(O)cc2)C(C)(C)CCC1 [Fenretinide, reference compound] | 29.3 | 47.2 | 2.09 | 22.2 | 14.0 | 59.3 | 2.63 | 24.5 | 101 | lower than 1 μM |  |  |  |  | 
CC1=C(/C=C/C(C)=C/C=C/C(C)=C/C(=O)Oc2ccccc2C(F)(F)F)C(C)(C)CCC1 [Example 2a-03, (2-trifluoromethylphenyl)-(all-trans)-3,7-dimethyl-9-(2,6,6-trimethyl-1-cyclohexen-1-yl)-2,4,6,8-nonatetraenoate] |  |  |  |  |  |  |  |  |  |  | 28.9 | 45.7 | 1.01 | 25.8 | 
CC1=C(/C=C/C(C)=C/C=C/C(C)=C/C(=O)Nc2cccc(OC(F)(F)F)c2)C(C)(C)CCC1 [Example 6a-02, (3-trifluoromethoxyphenyl)-(all-trans)-3,7-dimethyl-9-(2,6,6-trimethyl-1-cyclohexen-1-yl)-2,4,6,8-nonatetraenoic acid amide] |  |  |  |  |  |  |  |  |  |  | 9.79 | 70.0 | 1.71 | 19.0 | 
CC1=C(/C=C/C(C)=C/C=C/C(C)=C/C(=O)Oc2ccc(N)cc2C(F)(F)F)C(C)(C)CCC1 [Example 4a-02, (4-amino-2-trifluoromethylphenyl)-(all-trans)-3,7-dimethyl-9-(2,6,6-trimethyl-1-cyclohexen-1-yl)-2,4,6,8-nonatetraenoate] |  |  |  |  |  |  |  |  |  |  | 23.9 | 44.1 | 1.90 | 29.4 | 
CC1=C(/C=C/C(C)=C/C=C/C(C)=C/C(=O)Nc2cccc(C(F)(F)F)c2)C(C)(C)CCC1 [Example 3a-02, (3-trifluoromethylphenyl)-(all-trans)-3,7-dimethyl-9-(2,6,6-trimethyl-1-cyclohexen-1-yl)-2,4,6,8-nonatetraenoic acid amide] |  |  |  |  |  |  |  |  |  |  | 40.9 | 35.1 | 1.62 | 23.6 | most greatly effects on the apoptosis of A549 cells
